Measurements from publication PMC4648050, “Discovery of Inhibitors of Trypanosoma brucei by Phenotypic Screening of a Focused Protein Kinase Library” (Chemmedchem, 2015).
“Also recorded” adds a separate entry of the source. Where two headings read alike, the source gives them in different places.

Key:
[1] = In vivo pharmacokinetics in mice; parameters: species or system female NMRI mice; conditions: for Tmax: female, NMRI; for Tmax / Cmax / half-life / AUC(0-t): mouse, whole blood, blood; for AUC(0-t): read-out: AUC(0–8) (converted)
Experimental: In vivo pharmacokinetics in mice: Compounds 1 and 28 were dosed orally by gavage as a solution at 5 mg free base per kg or 20 mg free base per kg, respectively (dose volume: 5 or 10 mL kg^−1, dose vehicle: 5 % DMSO, 40 % PEG400, 55 % distilled H2O) to female NMRI mice (n=3). Compounds 28, 38, and 56 were dosed as a bolus solution intraperitoneally at 10 (56) or 20 (28 and 38) mg free base per kg (dose volume: 10 mL kg^−1, dose vehicle: 5 % DMSO, 40 % PEG400, 55 % sterile H2O) to female NMRI mice (n=3). Female NMRI mice were chosen, as these represent the sex and strain used for the stage-1 and stage-2 HAT efficacy models. Blood samples were taken from each mouse at 5 (i.p. only), 15 and 30 min, 1, 2, 4, 6 and 8 h post-dose and mixed with two volumes of distilled H2O. After suitable sample preparation, the concentration of each compound in blood was determined by UPLC–MS/MS using a Quattro Premier XE (Waters, USA). Pharmacokinetic parameters were derived from the mean blood concentration time curve using PKsolutions software ver. 2.0 (Summit Research Services, USA).

[2] = Plasma protein binding (equilibrium dialysis); format: in vitro ADME; conditions: mouse plasma
Experimental: Plasma protein binding experiments: In brief, a 96-well equilibrium dialysis apparatus was used to determine the free fraction in plasma for each compound (HT Dialysis LLC, Gales Ferry, CT, USA). Membranes (12-14 kDa cutoff) were conditioned in deionised H2O for 60 min, followed by conditioning in 80:20 deionised H2O/EtOH for 20 min, and then rinsed in isotonic buffer before use. Female CD1 mouse plasma was removed from the freezer and allowed to thaw on the day of experiment. Thawed plasma was then centrifuged (Allegra […], Beckman Coulter, USA), spiked with test compound (10 μg g^-1), and 150 μL aliquots (n=6 replicate determinations) loaded into the 96-well equilibrium dialysis plate. Dialysis against isotonic buffer (150 μL) was carried out for 5 h in a temperature-controlled incubator at ∼37 °C (Barworld Scientific Ltd., UK) using an orbital microplate shaker at 125 rpm (Barworld Scientific). At the end of the incubation period, aliquots of plasma or buffer were transferred to micronic tubes (Micronic B.V., the Netherlands), and the composition in each tube was balanced with control fluid such that the volume of buffer to plasma is the same. Sample extraction was performed by the addition of 400 μL MeCN containing an appropriate internal standard. Samples were allowed to mix for 1 min and then centrifuged at 3000 rpm in 96-well blocks for 15 min (Allegra […], Beckman Coulter, USA). All samples were analysed by UPLC-MS/MS on a Quattro Premier XE Mass Spectrometer (Waters Corp.). The unbound fraction was determined as the ratio of the peak area in buffer to that in plasma.

[3] = test system: T. brucei bloodstream-stage cells; assay: Static–cidal (SC) assay; format: cell-based, Trypanosoma brucei brucei; conditions: for EC50: 48 h
[4] = po, 5 mg kg^−1, female NMRI mice
[5] = ip, 20 mg kg^−1, female NMRI mice
[6] = po, 20 mg kg^−1, female NMRI mice

time to reach Cmax ([1]; dosed orally, 20 mg kg^−1) [min]	Tmax ([1]; ip, 20 mg/kg, 20 mg kg^−1, female NMRI mice) [h]	Tmax ([1]; po, 20 mg/kg, 20 mg kg^−1, female NMRI mice) [h]	Cmax [1, 5] [ng/mL]	half-life [1, 5] [h]	AUC(0-t) [1, 5] [ng·h/mL]	Cmax [1, 6] [ng/mL]	half-life [1, 6] [h]	AUC(0-t) [1, 6] [ng·h/mL]	fraction unbound at 5 h, 10 μg g^−1 ([2]; female, CD1, equilibrium dialysis, read-out: PPB)	PPB ([2]; equilibrium dialysis) [% free]	EC50 ([3]; Trypanosoma brucei, static cidal EC50, first site/phase, read-out: SC EC50(1)) [nM]	EC50 ([3]; Trypanosoma brucei, static cidal EC50, second site/phase, read-out: SC EC50(2)) [nM]	Compound	Tmax ([1]; po, 5 mg/kg, 5 mg kg^−1, female NMRI mice) [h]	Cmax [1, 4] [ng/mL]	half-life [1, 4] [h]	AUC(0-t) [1, 4] [ng·h/mL]	protein binding (unbound) [2] [% unbound]	MCC ([3]; Trypanosoma brucei, static–cidal assay in triplicate, read-out: MCC (minimal cidal concentration)) [µM]	mode of antiparasitic effect (in words) ([3]; text and figure legend, at concentrations tested)
–	–	–	–	–	–	–	–	–	–	–	–	–	CC(c1ccccc1)n1c(=O)[nH]c2ncc(-c3ccc(F)cc3)nc21 (stereo not drawn) [Compound 1]	~2	110	3	600	0.3	–	–
15	0.083	0.25	5200	1.2	3830	910	1.7	1150	0.072	7.2	100	> 50000	O=c1[nH]c2ncc(-c3ccccc3CO)nc2n1C1CCCCC1 [Compound 28]	–	–	–	–	7.2	> 50	growth-slowing or static behaviour; also recorded: growth-slowing
